Tests used:
Assay in all cases: Bitter taste receptor screening, calcium mobilization in HEK293T cells
Format in all cases: cell-based
TAS2R10 = target: T1, TAS2R10 (Homo sapiens, UniProt Q9NYW0)
T1 construct: first 45 amino acids of rat somatostatin type 3 receptor (SSTR3) (N); expressed in transfected cells; host or cells: HEK293T stably expressing chimeric Gα16gust44, transiently co-transfected with the pcDNA4-TAS2R vector and pCMV-GCaMP5G
T1 sequence (Q9NYW0 1-307): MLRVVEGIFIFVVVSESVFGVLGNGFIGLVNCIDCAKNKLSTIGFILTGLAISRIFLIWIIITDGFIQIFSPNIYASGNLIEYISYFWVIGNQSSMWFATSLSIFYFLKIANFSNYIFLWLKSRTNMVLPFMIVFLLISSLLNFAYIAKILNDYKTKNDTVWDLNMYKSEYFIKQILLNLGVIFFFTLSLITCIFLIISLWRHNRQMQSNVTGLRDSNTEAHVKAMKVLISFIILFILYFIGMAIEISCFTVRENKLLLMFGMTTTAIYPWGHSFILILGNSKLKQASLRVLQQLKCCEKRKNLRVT
Experimental: (§1) Bitter taste receptor cDNA were cloned into the pcDNA4 mammalian expression vector (Invitrogen) using full coding receptor sequences reported on UniProt database. The synthetic constructs were codon optimized (Genewiz) and combine the first 45 amino acids of rat somatostatin type 3 receptor at the amino terminus to improve plasma membrane targeting of the receptors in the heterologous system. The FLAG epitope was added to the carboxy terminus without interfering with receptor functionality and can be used for immunocytochemistry. Calcium-mobilization assays were performed using human embryonic kidney cells (HEK293T) stably transfected with chimeric Gα16gust44 protein[78]. Cells were seeded in black, poly-D-lysine coated 96-well plates at a density of 35,000 cells/100 µL in high glucose DMEM supplemented with 10% dialysed fetal bovine serum and 1% penicillin/streptomycin. Twenty-four hours later, the cells were transiently co-transfected using Lipofectamine 2000 (Life Technologies) with one of the TAS2R synthetic optimized vectors or empty expression plasmid, as a negative control, and the pCMV-GCaMP5G construct (Addgene #31788) coding for a genetically encoded calcium indicator[79],[80]. Twenty-four hours after transfection, cells were washed twice with C1 buffer (130 mM NaCl, 5 mM KCl, 10 mM HEPES, 2 mM CaCl2, 5 mM sodium pyruvate, pH7.4). 3-oxo-C12:2-HSL was solved in DMSO and further diluted in C1 buffer. Next, the cells were placed in a fluorometric imaging plate reader (Flexstation® 3, Molecular Devices) and stimulated with automatic injection of increasing concentrations of AHLs. Calcium responses leading to increase in fluorescence were monitored at 510 nm after excitation at 488 nm. Experiments were performed in duplicates and repeated at least four times. The recorded calcium levels of each wells receiving the same stimulus were averaged, response of mock-transfected cells were subtracted from receptor-transfected cells and net signals were normalized to background fluorescence (F/F0, F0 fluorescence light before stimulus application). The resulting dose–response curves of the averaged fluorescent signal amplitudes against the logarithm of the agonist concentration were fitted using Sigma Plot software. For data analysis, the four-parameter logistic equation [f(x) = min + (max − min)/(1 + (x/EC50)nH)] was used to calculate the half-maximal effective concentrations (EC50 values).

TAS2R13 = target: T2, TAS2R13 (Homo sapiens, UniProt Q9NYV9)
T2 construct: first 45 amino acids of rat somatostatin type 3 receptor (SSTR3) (N); expressed in transfected cells; host or cells: HEK293T stably expressing chimeric Gα16gust44, transiently co-transfected with the pcDNA4-TAS2R vector and pCMV-GCaMP5G
T2 sequence (Q9NYV9 1-303): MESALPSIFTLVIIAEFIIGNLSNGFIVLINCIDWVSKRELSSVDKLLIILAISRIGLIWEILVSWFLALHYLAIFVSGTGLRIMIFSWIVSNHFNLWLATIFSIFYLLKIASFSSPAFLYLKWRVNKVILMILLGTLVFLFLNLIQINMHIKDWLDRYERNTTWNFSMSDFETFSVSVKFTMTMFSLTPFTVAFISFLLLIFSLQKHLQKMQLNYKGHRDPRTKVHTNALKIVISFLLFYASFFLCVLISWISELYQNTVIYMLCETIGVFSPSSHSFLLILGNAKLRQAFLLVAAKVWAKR
Experimental: as §1

TAS2R14 = target: T3, TAS2R14 (Homo sapiens, UniProt Q9NYV8); conditions: calcium response F/F0
T3 construct: first 45 amino acids of rat somatostatin type 3 receptor (SSTR3) (N); expressed in transfected cells; host or cells: HEK293T stably expressing chimeric Gα16gust44, transiently co-transfected with the pcDNA4-TAS2R vector and pCMV-GCaMP5G
T3 sequence (Q9NYV8 1-317): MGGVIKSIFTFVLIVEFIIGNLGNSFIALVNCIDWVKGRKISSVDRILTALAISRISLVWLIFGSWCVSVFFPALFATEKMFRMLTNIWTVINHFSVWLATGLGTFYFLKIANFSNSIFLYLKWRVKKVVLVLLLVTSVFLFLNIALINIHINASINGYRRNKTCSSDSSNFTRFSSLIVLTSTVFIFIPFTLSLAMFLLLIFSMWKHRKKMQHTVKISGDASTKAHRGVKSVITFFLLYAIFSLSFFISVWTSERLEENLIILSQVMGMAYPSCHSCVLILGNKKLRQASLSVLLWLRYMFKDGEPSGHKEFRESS
Experimental: as §1

TAS2R38 = target: T4, TAS2R38 (Homo sapiens, UniProt P59533)
T4 construct: first 45 amino acids of rat somatostatin type 3 receptor (SSTR3) (N); expressed in transfected cells; host or cells: HEK293T stably expressing chimeric Gα16gust44, transiently co-transfected with the pcDNA4-TAS2R vector and pCMV-GCaMP5G
T4 sequence (P59533 1-333): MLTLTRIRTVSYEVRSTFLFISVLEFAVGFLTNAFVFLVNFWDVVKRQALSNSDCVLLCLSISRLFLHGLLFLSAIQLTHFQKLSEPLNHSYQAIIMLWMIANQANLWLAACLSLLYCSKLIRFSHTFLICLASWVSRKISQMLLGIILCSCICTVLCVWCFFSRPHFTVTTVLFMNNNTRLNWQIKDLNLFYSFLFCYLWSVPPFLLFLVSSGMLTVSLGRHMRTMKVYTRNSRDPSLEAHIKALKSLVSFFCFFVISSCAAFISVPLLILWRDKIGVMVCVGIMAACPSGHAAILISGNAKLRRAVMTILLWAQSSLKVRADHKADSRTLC
Experimental: as §1

TAS2R8 = target: T5, TAS2R8 (Homo sapiens, UniProt Q9NYW2)
T5 construct: first 45 amino acids of rat somatostatin type 3 receptor (SSTR3) (N); expressed in transfected cells; host or cells: HEK293T stably expressing chimeric Gα16gust44, transiently co-transfected with the pcDNA4-TAS2R vector and pCMV-GCaMP5G
T5 sequence (Q9NYW2 1-309): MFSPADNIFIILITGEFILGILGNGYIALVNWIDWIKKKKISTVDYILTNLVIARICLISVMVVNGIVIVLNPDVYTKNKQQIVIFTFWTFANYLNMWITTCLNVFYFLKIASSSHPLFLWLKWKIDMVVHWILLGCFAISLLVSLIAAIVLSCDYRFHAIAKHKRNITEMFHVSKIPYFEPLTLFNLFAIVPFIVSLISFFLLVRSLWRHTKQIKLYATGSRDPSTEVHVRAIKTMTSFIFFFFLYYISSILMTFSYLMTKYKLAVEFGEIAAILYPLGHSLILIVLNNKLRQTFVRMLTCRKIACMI
Experimental: as §1

maximum amplitude (TAS2R10; calcium response F/F0): 0.13 ± 0.03 | EC50 (TAS2R10; calcium response, 0–1000 µM): 438 ± 120 µM | maximum amplitude (TAS2R13; calcium response F/F0): 0.59 ± 0.03 | EC50 (TAS2R13; calcium response, 0–1000 µM): 884 ± 41 µM | maximum amplitude (TAS2R14): around 0.45 | maximum amplitude (TAS2R38; calcium response F/F0): 0.05 ± 0.01 | EC50 (TAS2R38; calcium response, 0–1000 µM): 476 ± 125 µM | maximum amplitude (TAS2R8; calcium response F/F0): around 0.45 | EC50 (TAS2R8; calcium response, 0–1000 µM): 333 ± 27 µM
Substance: 3-oxo-C12:2-HSL
